Measured values: ChEMBL document CHEMBL3217665, “Amino-derivatives of the sesquiterpene lactone class of natural products as prodrugs” (Medchemcomm, 2013)
In brackets after ≈: the same amount, converted by molar mass.

Key:
[1] = Antiproliferative activity against human Hep2 cells; format: functional; conditions: HEp-2, read-out: ED50 (the source's name)
MCF7 = assay: Antiproliferative activity against human MCF7 cells; format: functional, cell-based
P388 [2] = assay: Antiproliferative activity against mouse P388 cells; format: functional, cell-based
NCI-H520 = assay: Antiproliferative activity against human NCI-H520 cells; format: functional, cell-based
A549 = assay: Antiproliferative activity against human A549 cells; format: functional, cell-based
[3] = Oral bioavailability in mouse at 100 mg/kg; format: ADME, organism-based; conditions: in vivo
[4] = Half life in dog at 100 mg/kg, po; format: ADME, organism-based, Canis lupus familiaris; set-up: dose 100 mg/kg, route oral; conditions: in vivo
[5] = Cmax in dog at 100 mg/kg, po; format: ADME, organism-based, Canis lupus familiaris; set-up: dose 100 mg/kg, route oral; conditions: in vivo
[6] = Cmax in mouse at 100 mg/kg, po; format: ADME, organism-based; set-up: dose 100 mg/kg, route oral; conditions: in vivo
[7] = Half life in mouse at 100 mg/kg, po; format: ADME, organism-based; set-up: dose 100 mg/kg, route oral; conditions: in vivo
[8] = Oral bioavailability in dog at 100 mg/kg; format: ADME, organism-based, Canis lupus familiaris; conditions: in vivo
[9] = Cmax in mouse at 40 mg/kg, po; format: ADME, organism-based; set-up: dose 40 mg/kg, route oral; conditions: in vivo
P388 [10] = assay: Antitumor activity against mouse P388 cells allografted in DBA/2 mouse assessed as survival; format: functional
Rattus norvegicus = species on record: Rattus norvegicus; assay: Gastroprotective activity in rat assessed as inhibition of HCl/ethyl alcohol-induced lesions; format: functional
[11] = Antiinflammatory activity in mouse macrophages assessed as LPS-induced nitric oxide production; format: functional, cell-based; conditions: Macrophage
Mus musculus = species on record: Mus musculus; assay: Gastroprotective activity in mouse assessed as inhibition of water-immersion-induced lesions; format: functional

SMILES | IC50 [11] [µg/mL] | EC50 [1] [µg/mL] | inhibition (INH) (Rattus norvegicus) [%] | inhibition (INH) (Mus musculus) [%] | other results
C=C1C(=O)O[C@@H]2C[C@@H](C)[C@@H]3CCC(=O)[C@@]3(C)[C@@H](O)[C@H]12 | – | 3.83 (≈ 14.5 µM) | – | – | –
C=C1CCC[C@]2(C)C[C@H]3OC(=O)[C@@H](CN(CC)CC)[C@H]3C[C@@H]12 | – | – | – | – | IC50 (MCF7): 800 nM; IC50 (P388 [2]): 300 nM; IC50 (NCI-H520): 900 nM; IC50 (A549): 800 nM
C/C1=C\CC[C@@]2(C)O[C@@H]2[C@H]2OC(=O)[C@@H](CN(C)C)[C@@H]2CC1 | – | – | – | – | bioavailability [3]: 70%; half-life [4]: 1.9 h; Cmax [5]: 61 µM; Cmax [6]: 25 µM; half-life [7]: 0.63 h; bioavailability [8]: 70%; Cmax [9]: 0.2 µM
C[C@@H]1C[C@H]2OC(=O)C(CN(C)C)[C@H]2[C@H](O)[C@]2(C)C(=O)C=C[C@@H]12 (stereo partly specified) | – | 0.604 (≈ 1.96 µM) | – | – | Survival (P388 [10]): 13 days
C[C@@H]1C[C@H]2OC(=O)C(CN(C)C)[C@H]2[C@H](O)[C@]2(C)C(=O)CC[C@@H]12 (stereo partly specified) | – | 6.04 (≈ 19.5 µM) | – | – | –
C=C1C(=O)O[C@@H]2C[C@@H](C)[C@@H]3C=CC(=O)[C@@]3(C)[C@@H](O)[C@H]12 [HELENALIN] | – | 0.083 (≈ 0.316 µM) | – | – | Survival (P388 [10]): 13.4 days
C=C1C(=O)O[C@@H]2C[C@@]3(C)CCCC(=C)[C@@H]3C[C@H]12 [ISOALANTOLACTONE] | – | – | – | – | IC50 (MCF7): 600 nM; IC50 (P388 [2]): 400 nM; IC50 (NCI-H520): 900 nM; IC50 (A549): 600 nM

Now from value to molecule, other results behind:

IC50 [11] [µg/mL] | SMILES | EC50 [1] [µg/mL] | inhibition (INH) (Rattus norvegicus) [%] | inhibition (INH) (Mus musculus) [%] | other results
2.8 (≈ 8.06 µM) | C/C1=C\[C@H]2OC(=O)[C@@H](CN3CCC[C@H]3C(=O)O)[C@@H]2CC/C(C)=C/CC1 | – | 59.8 | 57 | –
2.8 (≈ 8.11 µM) | C=C1CC[C@H]2C(=C)CC[C@@H]3[C@H](OC(=O)[C@H]3CN3CCC[C@H]3C(=O)O)[C@@H]12 | – | 87 | 19 | –
16 (≈ 44.1 µM) | C=C1CC[C@H]2C(=C)CC[C@@H]3[C@H](OC(=O)[C@H]3CN[C@@H](CC(N)=O)C(=O)O)[C@@H]12 | – | 68.1 | 4.7 | –
1.2 (≈ 5.17 µM) | C=C1C(=O)O[C@@H]2/C=C(\C)CC/C=C(\C)CC[C@@H]12 [COSTUNOLIDE] | – | 93.2 | 14.3 | –
1.2 (≈ 5.21 µM) | C=C1CC[C@H]2C(=C)CC[C@H]3C(=C)C(=O)O[C@@H]3[C@@H]12 [DEHYDROCOSTUSLACTONE] | – | 96.2 | 19 | –
